Source: patent publication US20180235870A1, “TRANSDERMAL FORMULATIONS FOR DELIVERY OF BERBERINE COMPOUNDS, AND THEIR USE IN THE TREATMENT OF BERBERINE-RESPONSIVE DISEASES AND CONDITIONS” (DELIVRA INC., priority 2015, published 2018)

How the values were obtained:
[1] = rats; cited from earlier work
[2] = tested on: male Zucker fa/fa rat, a model of type 2 diabetes and metabolic disorder; test: Efficacy of transdermal berberine alone and in combination with pharmaceuticals in a model of metabolic syndrome (Example 19); type: in vivo, obese male Zucker fa/fa rats; settings: Zucker fa/fa rats
Procedure: Fourteen obese male Zucker fa/fa rats at 5 weeks of age were housed for five weeks to the age of 10 weeks. During these five weeks, body weight measurements were taken once a week and once daily health observations were conducted for all animals. […] On Day 28, serum and whole liver was collected. […] Food and water intake measurements were taken once a week during the study period of Day 0 to Day 28. […] A sufficient amount of test article was supplied and formulated. Test article product was administered at a dose of 3.6 g/kg twice a day (e.g. […] Berberine cream was weighed fresh daily at each AM and PM dosing to avoid desiccation of the test article. Daily PO and TD dosing of the test articles took place between the hours of 08:00 to 10:00 and 16:00 to 18:00 for 7 days a week between Day 0 to 27. […] The exact time of dosing (up to the minute) was recorded for each animal on the daily dosing sheets. […] Remaining dosing solutions were stored at 4° C. between dosing periods. […] The animals shaved underwemt gaseous anaesthetic according to SOP ROD28.01 to ensure accuracy and avoid undue stress of the animal. The area was further shaven as needed over the course of the dosing period to ensure accurate drug application and absorption. At dosing, the animals were restrained and the transdermal test articles were applied in a uniform layer over the entire shaved area. […] PTS3028).

male Zucker rats (fa/fa) = test: Efficacy of administration routes and dihydroberberine in a model of metabolic syndrome (Example 22); type: in vivo; settings: BID
Procedure: This study examined the efficacy of administration of a derivative of berberine (dihydroberberine) in transdermal formulations in 24 male Zucker rats (fa/fa), similar to the study protocol in Example 19. The following formulations were prepared: […] Animals were maintained without treatment until ten weeks of age at which time groups were randomized by weight and blood glucose. Animal weights were recorded daily and expressed here as percent change from Day zero.

[3] = humans; cited from earlier work
physchem = type: physicochemical
Procedure: The berberine partition coefficient procedure was used to assess the properties of berberine, which was determined to be an overall hydrophilic molecule. […] The solution was shaken by hand for 30 seconds and allowed to stand for 5 minutes. […] The solution was mixed for one hour using a rotating tube inverter (VWR, 13916-822). A blank sample containing water and octanol (0.7 mL of each) was prepared. […] The sample was monitored using UV/V is at wavelengths 230/600 nm and 280/600 nm. Autosampler temperature was maintained at 24° C. and column was at 30° C. The two layers of the sample were injected by adjusting the injection needle height. 0 mm was used for the water layer and +11 mm was used for the octanol layer. The retention time for berberine elution is 1.4 minutes and peak areas were assigned using the onboard Agilent software based upon absorbance at 230 nm. A HPLC-UV chromatogram was recorded for each layer of the partition according the procedure described above. The area under the peak between 1.2-2.2 minutes in the chromatogram was used as a measure of concentration of berberine. A linear relationship was assumed to exist between absorbance and concentration of berberine at the concentrations evaluated. […] The area-blank (cps) was used directly in the equation below.

[4] = oral route, published; cited from earlier work
[5] = Circulating berberine after chronic administration by various routes (Example 23); type: in vivo; settings: male, rat, plasma, oral, 180 mg/kg/dose; 15 days administration BID, Zucker fa/fa rats
[6] = averaged over the entire experiment

In the case of `COc1ccc2cc3[n+](cc2c1OC)CCc1cc2c(cc1-3)OCO2` [berberine, Berberine], the “bioavailability of orally administered berberine” value [1] is given as “approximately 0.7%”, the “rate of weight gain (grams/day)” value ([2]; BID, Day 0 to 28, n=2) is given as 3.3 grams/day and the “overall triglyceride levels (mmol/L+/−SEM)” value ([2]; averaged for the entire experiment) is given as 9.5 ± 1.0 mmol/L. The “overall HbA1c level change (mmol/mmol+/−SEM)” value [2, 6] was 31.3+/−0.7 mmol/mmol, the “overall average food intake (grams+/−SEM)” value [2, 6] was 30.8+/−1.5 grams and the “overall cholesterol level change (mmol/L+/−SEM)” value [2, 6] was 5.0 ± 0.3 mmol/L. For the same compound, the “overall average glucose change (%+/−SEM)” value ([2]; non-fasting glucose, averaged over the entire experiment) was −24.0+/−0.6%, the “cholesterol levels on Day 14 (mmol/L+/−SEM)” value (male Zucker rats (fa/fa)) was 8.3 ± 0.7 mmol/L and the “rate of weight gain (grams/day)” value (male Zucker rats (fa/fa)) was 1.7 grams/day. For the same compound, the “triglyceride levels on Day 14 (mmol/L+/−SEM)” value (male Zucker rats (fa/fa)) was 14.8 ± 3.0 mmol/L, the bioavailability [3] was “below 1%” and the “berberine in the lipophilic octanol solvent” value (physchem) was ~3%. The logD (physchem) was -0.63, the “Octanol area (cps) 230 nm” value (physchem; Partition) was 1763 cps and the “Water area (cps) 230 nm” value (physchem; Partition) was 34696 cps. For the same compound, the “Octanol area (cps) 230 nm” value (physchem; Partition minus blank) was 807 cps, the “Water area (cps) 230 nm” value (physchem; Partition minus blank) was 34342 cps and the “berberine remaining within the water layer” value (physchem; octanol/water) was 97%. The Tmax [4] was ~15 min, the “time to almost complete clearance after administration” value [4] was ≤ 30 min and the concentration at 15 days [5] was 101 ng/mL.
